The values below come from patent publication US8791116B2, “Myosin light chain kinase inhibitor compounds, compositions and related methods of use” (Northwestern University, priority 2006, dated 2014).

Entries after “also recorded” stand apart in the source; their conditions may differ.

The target of one series is MLCK (Homo sapiens, UniProt Q15746). Nature of the series: MLCK inhibitory activity screen (32P-ATP peptide substrate phosphorylation). In kind it is biochemical. The settings on record: for IC50: 20 μM peptide substrate, 200 μM ATP, 20 min at 25° C., read-out: MLCK (μM), in vitro inhibition of kinases; for selectivity for MLCK over related protein kinases (in words): compared to DAPK, PKC and PKA. As for the experimental part: (§1) MLCK inhibitory activity screens were done by incubation with 20 μM peptide substrate ([…]), 200 μM ATP and [^32P]-ATP (2.5 μCi per reaction) in assay buffer (50 mM HEPES, pH 7.5 with KOH, 5 mM MgCl2, 0.15 M KCl, 0.015 M NaCl, 1 mM DTT) with 0.1 mM CaCl2 and 1 μM calmodulin (New England Biolabs, MA). [T. J. Lukas, S. Mirzoeva, U. Slomczynska and D. M. Watterson, J. Med. Chem. 42 (1999) 910-9.] Reactions were initiated by addition of MLCK protein and incubated for 20 min at 25° C. Reactions were spotted onto P-81 paper (Whatman, Clifton, N.J.), washed with 75 mM H3PO4 and 95% EtOH, and quantified by scintillation counting in EcoScintO (National Diagnostics, Atlanta, Ga.). Testing of compounds for kinase inhibitory activity against the structurally and functionally related kinases death-associated protein kinase (DAPK) and the signal transduction pathway relevant kinases protein kinase A (PKA) and protein kinase C (PKC) was performed as described by using the corresponding peptide substrates and assay conditions. [[…]. Guo, […]. Bourguignon, […]. Van Eldik and D. M. Watterson, J. Med. Chem 45 (2002) 563-6; A. M. Schumacher, […] and D. M. Watterson, Biochemistry 43 (2004) 8116-24; […]. Schumacher and D. M. Watterson, Pharmacol Ther 93 (2002) 217-24; […]. Schumacher, C. Weiss, M. Egli and D. M. Watterson, J. Biol. Chem. 276 (2001) 38956-65; D. M. Watterson, S. Mirzoeva, L. Guo, […]. Bourguignon, […] and L. J. Van Eldik, Neurochem Int. 39 (2001) 459-68.]

The target of series [1] is death-associated protein kinase (DAPK) (Homo sapiens, UniProt P53355). Put plainly: Kinase inhibitory activity against death-associated protein kinase. In kind it is biochemical. The settings on record: read-out: DAPK (μM), in vitro inhibition of kinases. As for the experimental part:
as §1

The subject of series [2] is LPS induced vascular leak in the lungs. Nature of the series: Bacterial toxin (LPS)-induced pulmonary vascular leak, Evans blue dye in lung. In kind it is in vivo. The settings on record: mice, LPS 10 mg/kg i.p., compound 5 mg/kg i.p., 24 h. As for the experimental part: Adult (20-30 g) female C57B1/6 mice were obtained from a commercial vendor (Harlan, Indianapolis, Ind.). The generation and characterization of the MLCK210 KO mouse strain was previously described. [M. S. Wainwright, J. Rossi, J. Schavocky, S. Crawford, D. Steinhorn, […]. Jia, […]. Van Eldik and D. M. Watterson, Proc. Natl. Acad. Sci. USA 100 (2003) 6233-8.] All animal procedures were performed in accordance with relevant National Institutes of Health guidelines and approved by the Institutional Animal Care and Use Committee of Northwestern University. Pulmonary vascular leak after injurious endotoxin exposure was examined essentially as previously described, above, except using the increase in Evans blue dye in the lung as a quantitative end point. […] The levels of Evans blue in the serum and the tissue supernatant were then determined by measuring the absorbance at 620 nm. The reading at 620 nm (E620) was corrected for the presence of contaminating heme pigments in the samples by measuring the absorbance at 740 nm (E740) and using the correction formula E620=E620-(1.426×E740+0.030). The amount of Evans blue in the samples was then calculated using a standard curve obtained with known amounts of Evans blue. The results were normalized by considering the mean level of Evans blue measured in LPS-treated mice as 100%.

In the next series the target is protein kinase C (PKC). Nature of the series: Kinase inhibitory activity against protein kinase C. The class given is biochemical. The settings on record: read-out: PKC (μM), in vitro inhibition of kinases. As for the experimental part:
MLCK inhibitory activity screens were done by incubation with 20 μM peptide substrate (KKRPQRATSNVFAM-NH2), 200 μM ATP and [^32P]-ATP (2.5 μCi per reaction) in assay buffer (50 mM HEPES, pH 7.5 with KOH, 5 mM MgCl2, 0.15 M KCl, 0.015 M NaCl, 1 mM DTT) with 0.1 mM CaCl2 and 1 μM calmodulin (New England Biolabs, MA). [T. J. Lukas, S. Mirzoeva, U. Slomczynska and D. M. Watterson, J. Med. Chem. 42 (1999) 910-9.] Reactions were initiated by addition of MLCK protein and incubated for 20 min at 25° C. Reactions were spotted onto P-81 paper (Whatman, Clifton, N.J.), washed with 75 mM H3PO4 and 95% EtOH, and quantified by scintillation counting in EcoScintO (National Diagnostics, Atlanta, Ga.). Testing of compounds for kinase inhibitory activity against the structurally and functionally related kinases death-associated protein kinase (DAPK) and the signal transduction pathway relevant kinases protein kinase A (PKA) and protein kinase C (PKC) was performed as described by using the corresponding peptide substrates and assay conditions. [S. Mirzoeva, A. Sawkar, M. Zasadzki, L. Guo, A. V. Velentza, V. Dunlap, J. J. Bourguignon, H. Ramstrom, J. Haiech, L. J. Van Eldik and D. M. Watterson, J. Med. Chem 45 (2002) 563-6; A. M. Schumacher, J. P. Schavocky, A. V. Velentza, S. Mirzoeva and D. M. Watterson, Biochemistry 43 (2004) 8116-24; A. V. Velentza, A. M. Schumacher and D. M. Watterson, Pharmacol Ther 93 (2002) 217-24; A. V. Velentza, A. M. Schumacher, C. Weiss, M. Egli and D. M. Watterson, J. Biol. Chem. 276 (2001) 38956-65; D. M. Watterson, S. Mirzoeva, L. Guo, A. Whyte, J. J. Bourguignon, M. Hibert, J. Haiech and L. J. Van Eldik, Neurochem Int. 39 (2001) 459-68.]

A further series addresses protein kinase A (PKA) (Homo sapiens, UniProt P17612). Nature of the series: Kinase inhibitory activity against protein kinase A. The class given is biochemical. The settings on record: read-out: PKA (μM), in vitro inhibition of kinases. As for the experimental part:
as §1

Series [3] is described as follows: In vitro metabolic stability with human liver microsomes. The settings on record: 5 μM compound, 10 and 30 min at 37° C., HPLC. The class given is in vitro ADME. As for the experimental part: A standard screening of compounds for in vitro metabolic stability with human liver microsomes was done at 5 μM of compound using commercially available, calibrated human liver microsomes (BD Biosciences, Bedford, Mass.) and an NADPH-regenerating system. [D. Ackley, K. Rockich and T. Baker. in (Caldwell, Z. Y. a. G. W., ed.) Methods in pharmacology and toxicology optimization in drug discovery: in vitro methods, Humana Press Inc., Totowa, N.J. 2004, pp. 151-62.] Briefly, reaction mixtures were prepared in 0.1 M potassium phosphate buffer and contained 1.6 mg/ml microsomal protein, 5 μM test compound, 1.3 mM NADPH, 3.3 mM MgCl2, 0.4 U/ml glucose-6-phosphate dehydrogenase, and 3.3 mM glucose-6-phosphate in a total volume of 300 μl. Reactions were incubated for 10 and 30 minutes at 37° C. and halted by addition of cold acetonitrile. The mixture was centrifuged at 10000 g for 10 min and 20 μl of supernatant was analyzed by HPLC to quantify the percentage of the initial amount of compound remaining after incubation. The HPLC mobile phase consisted of 5% acetonitrile in water as reagent A and 80% acetonitrile/0.08% formic acid/water as reagent B at a flow rate of 0.2 ml/min. The gradient consisted of the following variations in % B: begin with % B at 0 for 2 min, 0-100% from 2 to 22 min, isocratic until 24 min. Peak quantification was done based upon absorption measurements at 260 nm relative to a standard curve obtained by serial dilutions of known amounts of compounds.
In general terms: Liver microsomes are vesicles of endoplasmic reticulum, rich in cytochrome P450 enzymes.

MLCK, sequence (Q15746 whole entry): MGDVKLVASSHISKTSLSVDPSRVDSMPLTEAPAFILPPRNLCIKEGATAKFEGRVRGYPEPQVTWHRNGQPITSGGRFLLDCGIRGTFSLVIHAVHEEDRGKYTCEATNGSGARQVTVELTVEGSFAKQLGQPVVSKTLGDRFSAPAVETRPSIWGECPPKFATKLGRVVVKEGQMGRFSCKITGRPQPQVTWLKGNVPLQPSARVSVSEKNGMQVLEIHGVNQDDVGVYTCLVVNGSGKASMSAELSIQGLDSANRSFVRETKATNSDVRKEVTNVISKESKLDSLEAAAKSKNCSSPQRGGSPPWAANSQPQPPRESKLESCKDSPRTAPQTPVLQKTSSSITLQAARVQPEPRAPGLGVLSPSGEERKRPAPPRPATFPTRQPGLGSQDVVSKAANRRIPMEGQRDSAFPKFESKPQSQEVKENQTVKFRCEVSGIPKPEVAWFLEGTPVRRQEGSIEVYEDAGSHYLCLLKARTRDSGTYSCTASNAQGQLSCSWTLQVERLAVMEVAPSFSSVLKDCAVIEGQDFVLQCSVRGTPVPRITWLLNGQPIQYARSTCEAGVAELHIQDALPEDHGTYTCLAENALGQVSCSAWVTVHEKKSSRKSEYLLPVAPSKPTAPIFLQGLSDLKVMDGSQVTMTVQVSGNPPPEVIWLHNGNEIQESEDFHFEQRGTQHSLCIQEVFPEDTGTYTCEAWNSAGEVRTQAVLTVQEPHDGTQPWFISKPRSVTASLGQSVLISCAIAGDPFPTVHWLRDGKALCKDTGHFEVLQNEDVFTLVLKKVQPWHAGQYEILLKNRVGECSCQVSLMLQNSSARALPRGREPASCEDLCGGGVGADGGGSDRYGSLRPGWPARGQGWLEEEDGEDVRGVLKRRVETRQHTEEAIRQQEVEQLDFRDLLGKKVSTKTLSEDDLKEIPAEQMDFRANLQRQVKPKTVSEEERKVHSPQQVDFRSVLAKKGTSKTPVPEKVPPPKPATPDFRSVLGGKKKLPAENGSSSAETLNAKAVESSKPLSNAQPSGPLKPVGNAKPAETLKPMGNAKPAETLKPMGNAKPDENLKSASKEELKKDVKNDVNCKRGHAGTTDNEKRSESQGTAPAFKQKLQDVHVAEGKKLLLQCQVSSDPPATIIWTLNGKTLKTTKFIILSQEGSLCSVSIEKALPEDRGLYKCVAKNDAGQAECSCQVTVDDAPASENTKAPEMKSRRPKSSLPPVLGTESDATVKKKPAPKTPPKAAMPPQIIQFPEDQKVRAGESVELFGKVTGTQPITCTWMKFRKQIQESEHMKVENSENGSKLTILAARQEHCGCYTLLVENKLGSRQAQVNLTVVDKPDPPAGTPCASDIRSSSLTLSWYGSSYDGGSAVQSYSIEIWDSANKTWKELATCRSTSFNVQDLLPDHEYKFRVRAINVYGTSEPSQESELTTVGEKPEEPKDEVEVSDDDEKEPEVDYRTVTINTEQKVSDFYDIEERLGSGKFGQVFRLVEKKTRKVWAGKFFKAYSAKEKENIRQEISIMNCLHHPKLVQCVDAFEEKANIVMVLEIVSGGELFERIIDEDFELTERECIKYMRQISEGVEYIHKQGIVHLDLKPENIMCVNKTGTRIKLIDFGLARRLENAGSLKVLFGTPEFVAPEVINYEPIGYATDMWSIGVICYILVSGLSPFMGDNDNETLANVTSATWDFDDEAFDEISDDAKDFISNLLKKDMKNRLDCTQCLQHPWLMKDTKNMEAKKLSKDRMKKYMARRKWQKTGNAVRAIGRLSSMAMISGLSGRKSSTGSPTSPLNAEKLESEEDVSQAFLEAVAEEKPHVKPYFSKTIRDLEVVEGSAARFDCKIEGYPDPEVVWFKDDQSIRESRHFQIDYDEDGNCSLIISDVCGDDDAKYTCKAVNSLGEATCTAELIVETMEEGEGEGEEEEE
death-associated protein kinase (DAPK), sequence (P53355 1-285 limits assumed, species assumed): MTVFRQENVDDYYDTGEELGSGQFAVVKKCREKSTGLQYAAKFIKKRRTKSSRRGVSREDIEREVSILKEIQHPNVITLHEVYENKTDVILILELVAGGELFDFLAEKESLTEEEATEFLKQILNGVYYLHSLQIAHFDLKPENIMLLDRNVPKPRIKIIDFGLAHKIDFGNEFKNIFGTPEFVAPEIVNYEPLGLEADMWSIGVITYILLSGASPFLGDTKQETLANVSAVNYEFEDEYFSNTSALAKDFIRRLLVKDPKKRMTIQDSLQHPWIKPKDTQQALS

Take `CN1CCCC1CCNC(=O)CCCCCCCCCCn1nc(-c2ccccc2)ccc1=N` (stereo not drawn) [Compound 6, 11-(6-imino-3-phenylpyridazin-1(6H)-yl)-N-(2-(1-methylpyrrolidin-2-yl)ethyl)-undecanamide]: the IC50 on MLCK is 13.3 µM; in series [1] it was over 1000 µM; at protein kinase C (PKC), 414 µM; on protein kinase A (PKA), over 1000 µM. Moreover, the “selectivity for MLCK over related protein kinases (in words)” value (“selectivity for MLCK … (in words)” for short) at MLCK was “highly selective for MLCK; also recorded: selective for MLCK compared to closely related protein kinases”. In addition, at MLCK (ratio from Table 1), the “selectivity for MLCK versus DAPK” value is reported as “over 76 times”. Moreover, the “level of Evans blue dye in lung tissue (pulmonary vascular leak)” value in series [2] is recorded as “efficacious in vivo to reduce LPS-induced pulmonary vascular leak; also recorded: significantly lower (*p<0.05) levels of dye”. Also, the “amount of compound remaining after incubation with human liver microsomes” value in series [3] is “stable”; in series [3] (listed as compound 6), “did not decrease up to 30 minutes of incubation; also recorded: The majority of compound 6 (filled bar) remains after 10 and 30 min incubation times”.
Turning to `N=c1ccc(-c2ccccc2)nn1CCCCCCCCCCC(=O)NCCc1c[nH]cn1` [Compound 5, N-(2-(1H-imidazol-4-yl)ethyl)-11-(6-imino-3-phenylpyridazin-1(6H)-yl)undecanamide], the IC50 at MLCK was 6.3 µM; in series [1], 271 µM; on protein kinase C (PKC), 166 µM; on protein kinase A (PKA) it was over 1000 µM. Further, the “selectivity for MLCK … (in words)” value at MLCK is “more selective than compounds 1 or 2”.
In the case of `N=c1ccc(-c2ccccc2)nn1CCCCCCCCCCC(=O)NCCC1CCCC1` [Compound 10, N-(2-cyclopentylethyl)-11-(6-imino-3-phenylpyridazin-1(6H)-yl)undecanamide], the IC50 on MLCK is 2.5 µM; in series [1], 206 µM; at protein kinase C (PKC) it was 68 µM; at protein kinase A (PKA), over 1000 µM. For the same compound, the “selectivity for MLCK … (in words)” value at MLCK is “selective for MLCK”. Besides, at MLCK (in vitro, versus compound 6), the “MLCK inhibitory activity relative to parent compound (in words)” value is reported as “more active in vitro than the parent compound 6”. In addition, in series [3], the “amount of compound remaining after incubation with human liver microsomes” value is “significantly lower than compound 6; also recorded: significantly different (***p<0.001) at 10 and 30 min compared to zero min”.
